Where two headings read alike, the source gives them in different places. Residues, ends and D or L forms follow the SMILES beside them.
Assays:
[1] = Stability (half-life) in acidic aqueous solution, pH 3 phosphate buffer at 70° C.
[2] = Sensory evaluation: degree of sweetness relative to sucrose; settings: times that of 4% sucrose solution
[3] = pH 3

Stability (half-life, time corresponding to 50% degradation) [3] | Compound | Stability (half-life, time corresponding to 50% degradation) [1] [days] | Stability (half-life, time corresponding to 50% degradation) ([1]; listed as N-3,3-dimethylbutyl-α-L-aspartyl-α-methyl-L-tyrosine methyl. ester) | Degree of sweetness (relative to sugar) [2] [times] | Degree of sweetness (relative to sugar) ([2]; listed as N-3,3-dimethylbutyl-α-L-aspartyl-α-methyl-L-tyrosine methyl ester)
 | COC(=O)[C@](C)(Cc1ccc(O)cc1)NC(=O)[C@H](CC(=O)O)NCCC(C)(C)C [Example 2, N-3,3-dimethylbutyl-α-L-aspartyl-α-methyl-L-tyrosine methyl ester] | 14.5 | about 347 hours | 700 | about 700 times
about 24 hours | COC(=O)[C@H](Cc1ccccc1)NC(=O)[C@@H](N)CC(=O)O [aspartame] (H-Asp-Phe-OMe) |  |  |  | 
